Results reported in PMC2375326, “In vitro evaluation of amino acid prodrugs of novel antitumour 2-(4-amino-3-methylphenyl)benzothiazoles” (British Journal of Cancer, 2002).

Experiments:
Format in all cases: cell-based
SF-268 = test: NCI in vitro cytotoxicity assay (SRB), SF-268; conditions: Homo sapiens, 48 h exposure, sulforhodamine B assay, mean graph, read-out: Log10 GI50 (SF-268) (converted)
Method: (§1) Cell culture and drug application procedures have been described previously ([Boyd and Paull, 1995]). Briefly, cell lines were inoculated into a series of 96-well microtiter plates, with varied seeding densities depending on growth characteristics of each cell line. Following a 24 h drug free incubation, test agents were added at five 10-fold dilutions with a maximum concentration of 100 μM. Cellular protein levels were determined after 48 h drug exposure by sulphorhodamine B colorimetry.

A498 = test: NCI in vitro cytotoxicity assay (SRB), A498; conditions: Homo sapiens, 48 h exposure, sulforhodamine B assay, mean graph, read-out: Log10 GI50 (A498) (converted)
Method: as §1

HOP-92 = test: NCI in vitro cytotoxicity assay (SRB), HOP-92; conditions: Homo sapiens, 48 h exposure, sulforhodamine B assay, mean graph, read-out: Log10 GI50 (HOP-92) (converted)
Method: as §1

IGROV1 = test: NCI in vitro cytotoxicity assay (SRB), IGROV1; conditions: Homo sapiens, IGROV-1; 48 h exposure, sulforhodamine B assay, mean graph; read-out: Log10 GI50 (IGROV1) (converted)
Method: as §1

[1] = system: MDA 468 (ER−) human derived breast carcinoma cells; test: Growth inhibitory assay (MTT), MDA 468; conditions: Breast carcinoma cell, ER− MDA 468, 3 days (72 h) treatment, n=8, representative mean, ^a = biphasic dose response
Method: (§2) Prodrugs were prepared as 10 mM top stocks, dissolved in dimethylsulphoxide (DMSO) or sterile ddH2O, and stored at 4°C, protected from light for a maximum period of 4 weeks. MCF-7 (ER+) and MDA 468 (ER−) human derived breast carcinoma cells, cultivated at 37°C in an atmosphere of 5% CO2 in RPMI 1640 medium supplemented with 2 mM L-glutamine and 10% foetal calf serum, were routinely subcultured twice weekly to maintain continuous logarithmic growth. Cells were seeded into 96-well microtiter plates at a density of 5×10^3 per well and allowed 24 h to adhere before drugs were introduced (final concentration 0.1 nM–100 μM, n=8). Serial drug dilutions were prepared in medium immediately prior to each assay. Viable cell masses at the time of drug addition (time-zero), and following 72 h drug exposure were determined by cell-mediated 3-(4,5-dimethylthiazol-2-yl)-2,5-diphenyltetrazolium bromide (MTT) reduction. MTT was added to each well (final concentration 400 μg ml^−1) and plates were incubated at 37°C for 4 h to allow reduction of MTT by viable cell dehydrogenases to an insoluble formazan product. Well supernatants were aspirated and cellular formazan solubilised by addition of DMSO : glycine buffer (pH 10.5) (4 : 1). Cell growth as well as drug activity were determined by measuring absorbance at 550 nm using an Anthos Labtec systems plate reader.

TK-10 = test: NCI in vitro cytotoxicity assay (SRB), TK-10; conditions: Homo sapiens, 48 h exposure, sulforhodamine B assay, mean graph, read-out: Log10 GI50 (TK-10) (converted)
Method: as §1

NCI/ADR-RES = test: NCI in vitro cytotoxicity assay (SRB), NCI/ADR-RES; conditions: Homo sapiens, 48 h exposure, sulforhodamine B assay, mean graph, read-out: Log10 GI50 (NCI/ADR-RES) (converted)
Method: as §1

K-562 = test: NCI in vitro cytotoxicity assay (SRB), K-562; conditions: Homo sapiens, K562; 48 h exposure, sulforhodamine B assay, mean graph; read-out: Log10 GI50 (K-562) (converted)
Method: as §1

SK-MEL-5 = test: NCI in vitro cytotoxicity assay (SRB), SK-MEL-5; conditions: Homo sapiens, 48 h exposure, sulforhodamine B assay, mean graph, read-out: Log10 GI50 (SK-MEL-5) (converted)
Method: as §1

COLO 205 = test: NCI in vitro cytotoxicity assay (SRB), COLO 205; conditions: Homo sapiens, 48 h exposure, sulforhodamine B assay, mean graph, read-out: Log10 GI50 (COLO 205) (converted)
Method: as §1

HOP-62 = test: NCI in vitro cytotoxicity assay (SRB), HOP-62; conditions: Homo sapiens, 48 h exposure, sulforhodamine B assay, mean graph, read-out: Log10 GI50 (HOP-62) (converted)
Method: as §1

786-0 = test: NCI in vitro cytotoxicity assay (SRB), 786-0; conditions: Homo sapiens, 48 h exposure, sulforhodamine B assay, mean graph, read-out: Log10 GI50 (786-0) (converted)
Method: as §1

SW-620 = test: NCI in vitro cytotoxicity assay (SRB), SW-620; conditions: Homo sapiens, 48 h exposure, sulforhodamine B assay, mean graph, read-out: Log10 GI50 (SW-620) (converted)
Method: as §1

MDA-MB-435 = test: NCI in vitro cytotoxicity assay (SRB), MDA-MB-435; conditions: Homo sapiens, 48 h exposure, sulforhodamine B assay, mean graph, read-out: Log10 GI50 (MDA-MB-435) (converted)
Method: as §1

DU-145 = test: NCI in vitro cytotoxicity assay (SRB), DU-145; conditions: Homo sapiens, 48 h exposure, sulforhodamine B assay, mean graph, read-out: Log10 GI50 (DU-145) (converted)
Method: as §1

RXF 393 = test: NCI in vitro cytotoxicity assay (SRB), RXF 393; conditions: Homo sapiens, 48 h exposure, sulforhodamine B assay, mean graph, read-out: Log10 GI50 (RXF 393) (converted)
Method: as §1

SR = test: NCI in vitro cytotoxicity assay (SRB), SR; conditions: Homo sapiens, 48 h exposure, sulforhodamine B assay, mean graph, read-out: Log10 GI50 (SR) (converted)
Method: as §1

SNB-75 = test: NCI in vitro cytotoxicity assay (SRB), SNB-75; conditions: Homo sapiens, 48 h exposure, sulforhodamine B assay, mean graph, read-out: Log10 GI50 (SNB-75) (converted)
Method: as §1

HS 578T = test: NCI in vitro cytotoxicity assay (SRB), HS 578T; conditions: Homo sapiens, 48 h exposure, sulforhodamine B assay, mean graph, read-out: Log10 GI50 (HS 578T) (converted)
Method: as §1

SK-OV-3 = test: NCI in vitro cytotoxicity assay (SRB), SK-OV-3; conditions: Homo sapiens, 48 h exposure, sulforhodamine B assay, mean graph, read-out: Log10 GI50 (SK-OV-3) (converted)
Method: as §1

[2] = system: MCF-7 (ER+) human derived breast carcinoma cells; test: Growth inhibitory assay (MTT), MCF-7; conditions: MCF7, ER+ MCF-7, 3 days (72 h) treatment, n=8, representative mean, ^a = biphasic dose response
Method: as §2

MOLT-4 = test: NCI in vitro cytotoxicity assay (SRB), MOLT-4; conditions: Homo sapiens, 48 h exposure, sulforhodamine B assay, mean graph, read-out: Log10 GI50 (MOLT-4) (converted)
Method: as §1

GI50 [1] | Compound | GI50 (SF-268) | GI50 (A498) | GI50 (HOP-92) | GI50 (IGROV1) | GI50 (TK-10) | GI50 (NCI/ADR-RES) | GI50 (K-562) | GI50 (SK-MEL-5) | GI50 (COLO 205) | GI50 (HOP-62) | GI50 (786-0) | GI50 (SW-620) | GI50 (MDA-MB-435) | GI50 (DU-145) | GI50 (RXF 393) | GI50 (SR) | GI50 (SNB-75) | GI50 (HS 578T) | GI50 (SK-OV-3) | also measured
< 0.0001 µM | Cc1cc(-c2nc3cc(F)ccc3s2)ccc1N [Compound 2, 2-(4-Amino-3-methylphenyl)-5-fluorobenzothiazole] | 58.9 µM | 2.82 µM | 36.3 µM | < 0.01 µM | < 0.01 µM | 66.1 µM | > 100 µM | > 100 µM | 66.1 µM | 18.6 µM | 24 µM | > 100 µM | > 100 µM | 95.5 µM | 32.4 µM | < 0.01 µM | 17 µM | 46.8 µM | 83.2 µM | GI50 [2]: < 0.0001 µM; GI50 (MOLT-4): > 100 µM
0.0577 µM | Cc1cc(-c2nc3cc(F)ccc3s2)ccc1NC(=O)[C@@H](N)CCCCN [Compound 2b] | 6.76 µM | 12.6 µM | 15.1 µM | < 0.01 µM | 0.0174 µM | 15.1 µM | 2.29 µM | 15.5 µM | 3.31 µM | 6.31 µM | 4.07 µM | 3.63 µM | 1.91 µM | 16.2 µM | 7.24 µM | 0.562 µM | 1.62 µM | 3.63 µM | 16.2 µM | GI50 [2]: 0.0391 µM; GI50 (MOLT-4): 1 µM
